This note sets out measurements from PubChem BioAssay (NCI).

This test concerns MDA-MB-468 breast. Put plainly: NCI anticancer screen, dose series, 48 h.

Several values for one entry are separate records, joined by “and”; a condition that tells them apart may be missing. Equal values may be shown once.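 Compound exposure: 48 hours, 5 concentrations, 96-well plates. GI50 marks 50% less growth. TGI: concentration producing complete growth inhibition.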

Consider `O=C(NCCCl)NCCN1c2nc3ccccc3cc2Sc2cc3ccccc3nc21`, for which the GI50 is 1.43 µM and the TGI came out at 5.42 µM.

Turning to `O=C(COc1cccc(/C=C2\COc3ccccc3C2=O)c1)c1ccccc1`, the GI50 is 1.78 µM and the TGI is 4.6 µM.

Regarding `NC(=O)c1cc(I)ccc1NC(=O)/C=C/c1ccccc1Cl`, the GI50 was 0.374 µM and the TGI was 7.67 µM.

Regarding `COc1ccc(CN2C(=O)/C(=C\C(=O)c3ccc(OCCN4CCCC4)cc3)c3ccccc32)cc1`, the GI50 was 2.07 µM and the TGI came out at 4.57 µM.

For `O=C(Nc1ccc(Oc2ccc(NC(=O)Nc3ccccc3Cl)cc2)cc1)Nc1ccccc1Cl`, the GI50 is 11 µM and the TGI turned out to be 49.6 µM.

Take `O=C(O)c1ccc(NCc2nc3ccccc3[nH]2)cc1`: the GI50 was over 100 µM and the TGI was over 100 µM.

For the molecule `CCN(CC)c1ccc2c(c1)Oc1nc(N)c(C#N)c(N)c1C2Sc1ccc(F)cc1` (stereo unspecified), the GI50 is 1.61 µM and the TGI is 3.13 µM.

For the molecule `Nc1nc(=S)c2ncn(C3OC(CO)C(O)C3O)c2[nH]1` (stereo unspecified), the GI50 is 0.253 µM and the TGI is 1.69 µM.

As for `CCC1=C[C@@H]2CN(C1)Cc1c([nH]c3ccccc13)[C@@](C(=O)OC)(c1cc3c(cc1OC)N(C)[C@H]1[C@@](O)(C(=O)OC)[C@H](OC(C)=O)[C@]4(CC)C=CCN5CC[C@]31[C@@H]54)C2`, the GI50 is under 0.01 µM and the TGI turned out to be 17 µM.

As for `CCCCCCNC(=O)Oc1ccc(/C(=C(/C)c2ccc(Cl)cc2)c2ccc(OCCN3CCCC3)cc2)cc1`, the GI50 is 1.66 µM and the TGI was determined as 3.17 µM.

Regarding `Cc1cncc(-c2nc(NCCc3c[nH]c4ccccc34)c3ncn(C(C)C)c3n2)c1`, the GI50 was 3.02 µM and the TGI worked out at 10.9 µM.

Consider `NS(=O)(=O)c1ccc(N=Nc2c(O)[nH]c3ccc(C(=O)NCCc4cnc[nH]4)cc23)cc1`, for which the GI50 was over 25 µM and the TGI is over 25 µM.

Consider `CC(=O)OC1CC2C(C)(C)CCC[C@]2(C)C2=C1C(O)=C(C(C)C)C(=O)C2=O` (stereo partly specified), for which the GI50 is 1.56 µM and the TGI is 3.81 µM.

In the case of `CC(C)C(=O)Nc1ccc(-c2nc(-c3cccc(OCCN4CCOCC4)c3)c(-c3ccnc(Br)c3)[nH]2)cc1`, the GI50 was 1.89 µM and the TGI was found to be 4.04 µM.

On to `c1ccc(COCC[P+](c2ccccc2)(c2ccccc2)c2ccccc2)cc1`, for which the GI50 was 0.239 µM and the TGI stood at 1.95 µM.

In the case of `Cc1ccc(/C=C(/C#N)n2nnc3ncccc32)cc1`, the GI50 was 2.49 µM and the TGI was found to be 11.2 µM.

Consider `C[C@@H](Oc1ccc(Oc2cnc3ccc(Cl)cc3n2)cc1)C(=O)O`, for which the GI50 was 39.9 µM and the TGI was over 100 µM.

For the molecule `COC(=O)[C@H](Cc1ccccc1)NNC(=O)c1csc([C@@H](C[C@H](C(C)C)N(C)C(=O)[C@@H](NC(=O)[C@H]2CCCCN2C)C2CC2)OC(C)=O)n1`, the GI50 was 0.00652 µM and 0.0025 µM; the TGI is 25 µM and > 100 µM.

Take `Nc1c(C(=O)c2ccc(C#CCN3CCOCC3)cc2)cnn1-c1ccc(F)cc1`: the GI50 is over 25 µM and the TGI is over 25 µM.

With `O=C(/C=C/c1ccco1)Nc1ncc(Cc2cccc(C(F)(F)F)c2)s1`, the GI50 is 0.111 µM and the TGI stood at 6.93 µM.

As to `C[C@]12CCCN1CC1=NNC(=O)c3cc(F)cc4[nH]c2c1c34`, the GI50 is 13.5 µM and the TGI was 34.5 µM.

For the molecule `CCOC(=O)Nc1ccc2nc(N3CCCCCC3)sc2c1`, the GI50 was 0.391 µM and the TGI amounted to 3.11 µM.

As to `CC(C)n1nc(C#Cc2cccc(O)c2)c2c(N)ncnc21`, the GI50 was 3.62 µM and 2.22 µM; the TGI was 23.8 µM and 5.51 µM.

For `CN(C)c1ccc(/C=C(\C#N)c2ccccc2)cc1`, the GI50 is 0.34 µM and 0.293 µM and 0.728 µM.

As to `CS(=O)(=O)O[C@H]1C(=O)N(c2cc3c4ccccc4ccc3c3ccccc23)[C@@H]1c1ccccn1`, the GI50 was 0.269 µM and the TGI turned out to be 5.27 µM.

Consider `CC[C@@]1(O)C(=O)OCc2c1cc1n(c2=O)Cc2cc3c(CN(C)C)c(O)ccc3nc2-1`, for which the GI50 was < 0.01 µM and 0.0234 µM; the TGI was 0.0426 µM and 0.108 µM.
